Test results taken from US20230114107A1, “COMBINATION ANTI-CANCER THERAPIES WITH INDUCERS OF IRON-DEPENDENT CELLULAR DISASSEMBLY” (Flagship Pioneering Innovations V, Inc., priority 2019, published 2023).

Columns and labels:
[1] = system: Caki-1 renal cell carcinoma cells; assay: Viability of Caki-1 renal cell carcinoma cells after treatment; assay type: cell-based
[2] = system: NFKB reporter in THP1-Dual cells; assay: NFKB reporter activity in THP1-Dual monocytes co-cultured with treated Caki-1 cells; assay type: cell-based, human
Procedure: Caki-1 renal cell carcinoma cells were treated with either control (DMSO) or various doses of Erastin, for 24 hours prior to co-culture with THP1-Dual cells for an additional 24 hours. Erastin was purchased from Selleckchem (Houston, Tex.) and dissolved in DMSO. Subsequently, the THP1 supernatants were assessed for NFKB or IRF reporter activity. Caki-1 cells were acquired from ATCC and THP1-Dual cells acquired from InvivoGen (San Diego, Calif.). Both cell types were cultured in 96-well plates for the duration of the assay. 7,500 Caki-1 cells were plated 24 hours prior to dosing with Erastin, with a final DMSO concentration of 0.5%. 24 hours post-treatment, THP1-Dual cells (25,000 cells/well) were added to the Caki-1 cells. 24 hours later, 30 μl of supernatant was mixed with either 200 μl QuantiBlue (InvivoGen) or 50 μl QuantiLuc and absorbance or luminescence was recorded on a Molecular Devices plate reader. Caki-1 renal cell carcinoma cells were treated with either control (DMSO) or various doses of RSL3, for 24 hours prior to co-culture with THP1-Dual cells for an additional 24 hours. RSL3 was purchased from Selleckchem and dissolved in DMSO. Subsequently, the THP1 supernatants were assessed for NFKB or IRF reporter activity. Caki-1 cells were acquired from ATCC and THP1-Dual cells acquired from InvivoGen (San Diego, Calif.). Both cell types were cultured in 96-well plates for the duration of the assay. 7,500 Caki-1 cells were plated 24 hours prior to dosing with RSL3, with a final DMSO concentration of 0.5%. 24 hours post-treatment, THP1-Dual cells (25,000 cells/well) were added to the Caki-1 cells. 24 hours later, 30 μl of supernatant was mixed with either 200 μl QuantiBlue (InvivoGen, San Diego, Calif.) or 50 μl QuantiLuc and absorbance or luminescence was recorded on a Molecular Devices plate reader. […] Subsequently, the THP1 supernatant was assessed for NFKB reporter activity. Caki-1 cells were acquired from ATCC and THP1-Dual cells acquired from InvivoGen (San Diego, Calif.). Both cell types were cultured in 96-well plates for the duration of the assay.

[3] = system: A20 B-cell leukemia cells; assay: Viability of A20 B-cell leukemia / lymphoma cells after treatment; assay type: cell-based; conditions: for viability of A20 lymphoma cells, dose dependence: GPX4 inhibitor 0.002-10 μM, 24 hours, FIG. 10A, 11A, 12A
[4] = system: NFKB reporter in THP1-Dual cells; assay: NFKB reporter activity in THP1-Dual monocytes co-cultured with treated A20 cells; assay type: cell-based, human; conditions: for NFKB activity in THP1 cells, dose dependence: A20 lymphoma cells treated with GPX4 inhibitor, FIG. 10B, 11B, 12B
Procedure: A20 B-cell leukemia cells were treated with either control (DMSO) or various doses of RSL3, for 24 hours prior to co-culture with THP1-Dual cells for an additional 24 hours. RSL3 was purchased from Selleckchem (Houston, Tex.) and dissolved in DMSO. Subsequently, the THP1 supernatants were assessed for NFKB or IRF reporter activity.
A20 cells were acquired from ATCC and THP1-Dual cells acquired from InvivoGen (San Diego, Calif.). Both cell types were cultured in 96-well plates for the duration of the assay. 50,000 A20 cells were plated 24 hours prior to dosing with RSL3, with a final DMSO concentration of 0.5%. 24 hours post-treatment, THP1-Dual cells (25,000 cells/well) were added to the A20 cells. 24 hours later, 30 μl of supernatant was mixed with either 200 μl QuantiBlue (InvivoGen, San Diego, Calif.) or 50 μl QuantiLuc and absorbance or luminescence was recorded on a Molecular Devices plate reader.
A20 lymphoma cells were treated with various doses (e.g. 0.002, 0.005, 0.014, 0.041, 0.123, 0.370, 1.111, 3.333 and 10 μM) of a GPX4 inhibitor (RSL3, ML162 or ML210) in the presence or absence of 1 μM Ferrostatin-1 for 24 hours. ML162 was purchased from Cayman Chemical Company Inc and resuspended in DMSO. ML210 was purchased from Sigma-Aldrich and resuspended in DMSO. A20 lymphoma cells were also treated with DMSO as a negative control. After treatment with DMSO or a GPX4 inhibitor for 24 hours, the A20 lymphoma cells were co-cultured with THP1-Dual cells for an additional 24 hours. Subsequently, the THP1 supernatant was assessed for NFKB reporter activity. A20 cells were acquired from ATCC and THP1-Dual cells were acquired from InvivoGen (San Diego, Calif.). Both cell types were cultured in 96-well plates for the duration of the assay.

[5] = system: HT1080 fibrosarcoma cells; assay: Viability of HT1080 fibrosarcoma cells after 24 h treatment; assay type: cell-based; conditions: various doses
[6] = system: NFKB reporter in THP1-Dual cells; assay: NFKB reporter activity in THP1-Dual monocytes co-cultured with treated HT1080 cells; assay type: cell-based, human
Procedure: HT1080 fibrosarcoma cells were treated with either control (DMSO) or various doses of Erastin, piperazine erastin (PE), or imidazole ketoerastin (IKE) for 24 hours prior to co-culture with THP1-Dual cells for an additional 24 hours. Erastin was purchased from Selleckchem (Houston, Tex.) and dissolved in DMSO. Subsequently, the THP1 supernatants were assessed for nuclear factor kappa-light-chain-enhancer of activated B cells (NFKB) or interferon regulatory factor (IRF) reporter activity.
HT1080 cells were acquired from ATCC and THP1-Dual cells were acquired from InvivoGen (San Diego, Calif.). THP1-Dual cells are human monocyte cells that induce reporter proteins upon activation of either NFKB or IRF pathways. Both cell types were cultured in 96-well plates for the duration of the assay. HT1080 cells were cultured in DMEM with 10% FBS, and THP1-Dual cells were cultured in RPMI with 10% FBS. 7,500 HT1080 cells were plated 24 hours prior to dosing with Erastin, PE, or IKE, with a final DMSO concentration of 0.5%. 24 hours post-treatment, THP1-Dual cells (25,000 cells/well) were added to the HT1080 cells. 24 hours later, 30 μl of supernatant was mixed with either 200 μl QuantiBlue (InvivoGen, San Diego, Calif.) (for NFKB reporter activity) or 50 μl QuantiLuc (for IRF reporter activity) and absorbance or luminescence was recorded on a Molecular Devices plate reader.
HT1080 fibrosarcoma cells were treated with various doses of Erastin (e.g. […], 0.16, 0.31, 0.63, 1.25, 2.5, 5, 10 or 20 μM) alone or in combination with a ferroptosis inhibitor (1 μM Ferrostatin-1, 1 μM Liproxstatin-1, 100 μM Trolox, 25 μM β-Mercaptoethanol or 100 μM Deferoxamine) for 24 hours prior to co-culture with THP1-Dual cells for an additional 24 hours. Ferrostatin-1 and Liproxstatin-1 were purchased from Selleckchem (Houston, Tex.) and dissolved in DMSO. Trolox was purchased from Cayman Chemical Company Inc and resuspended in DMSO. […] Subsequently, the THP1 supernatant was assessed for NFKB activity. […]
HT1080 fibrosarcoma cells were treated with various doses of Erastin (ferroptosis inducer), docetaxel (apoptosis inducer) or H2O2 (necrosis inducer) for 24 hours prior to co-culture with THP1-Dual cells for an additional 24 hours. […] Subsequently, the THP1 supernatants were assessed for nuclear factor kappa-light-chain-enhancer of activated B cells (NFKB).
HT1080 cells were acquired from ATCC and THP1-Dual cells were acquired from InvivoGen (San Diego, Calif.). […] 24 hours later, 30 μl of supernatant was mixed with either 200 μl QuantiBlue (InvivoGen, San Diego, Calif.) (for NFKB reporter activity) or 50 μl QuantiLuc (for IRF reporter activity) and absorbance or luminescence was recorded on a Molecular Devices plate reader.

[7] = system: NFkB reporter in THP1 monocytes; assay: Screen for innate immune activation: NFkB reporter in THP1 monocytes added to drug-treated HT-1080 cells; assay type: cell-based, human; conditions: final compound concentration of 10 PM; reporter read 48h after THP-1 addition; FIG. 17
Procedure: Over 100 FDA-approved anticancer drugs and 6 inducers of ferroptosis were evaluated for their ability to induce innate immune activation, as measured by induction of an NFkB reporter in THP1 monocytes in vitro. The source of the approved anticancer drug compounds was plate Approved Oncology Drug (AOD) IX, available from the National Cancer Institute, Division of Cancer Treatment and Diagnosis (dtp.cancer.gov/organization/dscb/obtaining/available_plates.htm). Briefly, 20,000-30,000 HT-1080 cells were plated per well in 96 well plates, and 10 μl each of compounds from the AOD IX plates were added to each well, for a final compound concentration of 10 PM. The six inducers of ferroptosis listed above were also included in the experiment, as a comparison. After addition of the drug, cells were incubated overnight, and 50,000 THP-1 reporter cells were added to each well on the following day. Reporter induction was measured by colorimetry 48h after reporter cell addition.

[8] = HT1080 cells treated 24 hours, co-culture 24 hours, vs DMSO, FIG. 1B, 1D
[9] = ferroptosis, apoptosis, necrosis inducers compared, FIG. 15A
[10] = HT1080 cells treated with ferroptosis, apoptosis or necrosis inducer, FIG. 15B

Compound: CCOC(=O)c1ccc(NC2CCCCC2)c(N)c1 [Ferrostatin-1]
- effect on GPX4 inhibitor-decreased viability of Caki-1 renal carcinoma cells ([1]; 1 μM Ferrostatin with RSL3 or ML162, 24 hours): attenuated
- effect on GPX4 inhibitor-increased NFKB activity in THP1 cells ([2]; Caki-1 cells, 1 μM Ferrostatin with RSL3 or ML162): attenuated
- effect on GPX4 inhibitor-decreased viability of A20 lymphoma cells ([3]; 1 μM Ferrostatin-1 with RSL3, ML162 or ML210, 24 hours): attenuated
- effect on GPX4 inhibitor-increased NFKB activity in THP1 cells ([4]; A20 cells, 1 μM Ferrostatin-1 with RSL3, ML162 or ML210): attenuated

Compound: CC(C)Oc1ccc(CN2CCNCC2)cc1-n1c(CN2CCN(C(=O)COc3ccc(Cl)cc3)CC2)nc2ccccc2c1=O [PE, piperazine erastin]
- viability of HT1080 cells ([5]; FIG. 1A, 1C): negatively affected the viability
- NFKB signaling in THP1 monocytes [6, 8]: elicited NFKB signaling in THP1 monocytes

Compound: COc1ccc(N(C(=O)CCl)C(C(=O)NCCc2ccccc2)c2cccs2)cc1Cl (centres unmarked) [ML162]
- viability of Caki-1 renal carcinoma cells, dose dependence ([1]; GPX4 inhibitor various doses, 24 hours, FIG. 13A, 14A): decreased viability of the cells in a dose dependent manner
- NFKB activity in THP1 cells, dose dependence ([2]; Caki-1 cells treated with RSL3 or ML162, FIG. 13B, 14B): increased NFKB activity in THP1 cells in a dose dependent manner
- viability of A20 lymphoma cells, dose dependence [3]: decreased viability of the cells in a dose dependent manner
- NFKB activity in THP1 cells, dose dependence [4]: increased NFKB activity in THP1 cells in a dose dependent manner

Compound: Cc1onc(C(=O)N2CCN(C(c3ccc(Cl)cc3)c3ccc(Cl)cc3)CC2)c1[N+](=O)[O-] [ML210]
- viability of A20 lymphoma cells, dose dependence [3]: decreased viability of the cells in a dose dependent manner
- NFKB activity in THP1 cells, dose dependence [4]: increased NFKB activity in THP1 cells in a dose dependent manner

Compound: OO [Example H2O2, H2O2]
- viability of HT1080 cells [5, 9]: negatively affected the viability
- NFKB signaling in THP1 monocytes [6, 10]: did not have this same effect

Compound: CC(=O)O[C@@]12CO[C@@H]1C[C@H](O)[C@@]1(C)C(=O)[C@H](O)C3=C(C)[C@@H](OC(=O)[C@H](O)[C@@H](NC(=O)OC(C)(C)C)c4ccccc4)C[C@@](O)([C@@H](OC(=O)c4ccccc4)[C@H]21)C3(C)C [docetaxel, Docetaxel]
- viability of HT1080 cells [5, 9]: negatively affected the viability
- NFKB signaling in THP1 monocytes [6, 10]: did not have this same effect

Compound: CCOc1ccccc1-n1c(C(C)N2CCN(C(=O)COc3ccc(Cl)cc3)CC2)nc2ccccc2c1=O (centres unmarked) [Erastin]
- increase in NFkB activity relative to the baseline [7]: 3.2 fold

Compound: CC(C)Oc1ccc(C(=O)Cn2ccnc2)cc1-n1c(CN2CCN(C(=O)COc3ccc(Cl)cc3)CC2)nc2ccccc2c1=O [IKE, imidazole ketoerastin]
- viability of HT1080 cells ([5]; FIG. 1A, 1C): negatively affected the viability
- NFKB signaling in THP1 monocytes [6, 8]: elicited NFKB signaling in THP1 monocytes
- increase in NFkB activity relative to the baseline [7]: 2.4 fold
